According to paper PMC10002220, “In Vivo Reversal of P-Glycoprotein-Mediated Drug Resistance in a Breast Cancer Xenograft and in Leukemia Models Using a Novel, Potent, and Nontoxic Epicatechin EC31” (International Journal of Molecular Sciences, 2023):

Key:
K562/P-gp cells = assay: Drug resistance level: IC50 of anticancer drugs in K562/P-gp; assay type: cell-based, human
Experimental: (§1) In the Western blot membrane, the total P-gp and β-actin expression in each lane was quantified with ImageJ software. The relative P-gp expression was an intensity ratio of P-gp band relative to the β-actin band. The relative P-gp expression of the resistant cell line relative to its respective wild type was presented as a bar chart. The plasma membrane P-gp levels of LCC6MDR and K562/P-gp relative to their wild types were determined through flow cytometry using antihuman P-gp-PE antibodies. (B) LCC6MDR and LCC6. (C) K562/P-gp and K562. (D) the drug resistance levels of three P-gp-overexpressing cell lines and their wild types were studied. The 3 pairs of cell lines were incubated with anticancer drugs paclitaxel (PTX), doxorubicin (DOX), and vincristine (VCR) for 3 days, and the % of cell survival was then determined. Their IC50 (nM) values were calculated using Prism 5.0. RF (relative fold) was a ratio of IC50 of anticancer drugs in a P-gp-overexpressing cell line relative to its respective wild type. N = 3 independent experiments. […] All cell lines were counterstained with DAPI. (E) LCC6 and LCC6MDR, (F) P388 and P338ADR, and (G) K562 and K562/P-gp. Bar = 8 µm. / = not determined.

LCC6MDR cells = assay: Drug resistance level: IC50 of anticancer drugs in LCC6MDR; assay type: cell-based, human
Experimental: as §1

P388ADR leukemia = assay: In vivo efficacy in reversing DOX resistance in murine leukemia P388ADR model; set-up: species or system B6D2F1 mice; details: DOX 3 mg/kg i.p. alone
Experimental: (§2) Irradiated BDF1 mice were i.p. inoculated with P388ADR cells, which caused mouse leukemia. Irradiated NOD/SCID mice were i.v. inoculated with K562/P-gp cells, which caused human leukemia. The mice were randomized and treated with (1) control treatment (no treatment), (2) DOX alone, and (3) EC31 + DOX. Treatments were given as indicated by the arrows. The number of mice deaths in each treatment group was recorded every day. (A) The percent survival of mice infected with P388ADR. (B) The percent survival of mice infected with K562/P-gp. The mice median survival days and the increased lifespan (ILS) were analyzed with Log-rank (Mantel–COX) test in Prism 5.0. Student’s paired t test was conducted as indicated. ** represents p < 0.01, and *** represents p < 0.001. N.S. = not significant.
About 1 × 10^6 cells of P388ADR were i.p. inoculated in male B6D2F1 mice aged 5–7 weeks old. There were 3 groups: (1) control group with no treatment, (2) DOX (3 mg/kg i.p.) alone, and (3) cotreatment with EC31 (60 mg/kg i.p.) being injected 1 h prior to DOX (3 mg/kg i.p.) administration. In group 2, DOX was i.p. injected on days 2, 6, 10, 14, and 18 only. In group 3, EC31 was i.p. injected on days 1, 2, 5, 6, 9, 10, 13, 14, 17, and 18, and DOX was i.p. injected on days 2, 6, 10, 14, and 18. Before each treatment, 1.5 mg/mL of DOX was freshly prepared using PBS. Mice survival and body weight were monitored during the study period.

P388 cells = assay: Drug resistance level: IC50 of anticancer drugs in P388; assay type: cell-based; details: Mus musculus, P388, 72 h; 3 days incubation
Experimental: as §1

K562/P-gp leukemia = assay: In vivo efficacy in reversing DOX resistance in human leukemia K562/P-gp model; set-up: species or system NOD/SCID mice
Experimental: as §2
The mice were randomly distributed into 3 groups: (1) control group (no treatment), (2) DOX (0.9 mg/kg i.v.) alone, and (3) cotreatment with EC31 (30 mg/kg i.p.) being injected 1 h prior to DOX (0.9 mg/kg i.v.) administration. EC31 and DOX were injected on days 7, 11, 19, 23, and 27. Before each treatment, 0.2 mg/mL of DOX was freshly prepared using PBS. Mice survival and body weight were monitored during the study period.

K562 cells = assay: Drug resistance level: IC50 of anticancer drugs in K562; assay type: cell-based; details: Homo sapiens, K562, 72 h; 3 days incubation
Experimental: as §1

LCC6 cells = assay: Drug resistance level: IC50 of anticancer drugs in LCC6; assay type: cell-based; details: Homo sapiens, LCC-6, 72 h; 3 days incubation
Experimental: as §1

P388ADR cells = assay: Drug resistance level: IC50 of anticancer drugs in P388ADR; assay type: cell-based, mouse
Experimental: as §1

For `COc1cccc2c1C(=O)c1c(O)c3c(c(O)c1C2=O)C[C@@](O)(C(=O)CO)C[C@@H]3O[C@H]1C[C@H](N)[C@H](O)[C@H](C)O1` [DOX, doxorubicin], the IC50 (K562/P-gp cells; Homo sapiens, K562, 72 h, 3 days incubation) was 1930 ± 126 nM, the “RF (relative fold)” value (K562/P-gp cells; IC50 in K562/P-gp relative to K562) was 6.2 and the IC50 (LCC6MDR cells; Homo sapiens, LCC6MDR, 72 h, 3 days incubation) was 10300 nM. For the same molecule, the “RF (relative fold)” value (LCC6MDR cells; IC50 in LCC6MDR relative to LCC6) was 12.9, the median survival (P388ADR leukemia) was 16.5 days and the IC50 (P388 cells) was 50 ± 1.8 nM. The median survival time (K562/P-gp leukemia; DOX 0.9 mg/kg i.v. alone) was 32.0 days, the “ILS% (increase in lifespan)” value (K562/P-gp leukemia; DOX alone compared to untreated) was 10.3% and the IC50 (K562 cells) was 312 ± 41.6 nM. The IC50 (LCC6 cells) was 800 ± 100 nM, the “RF (relative fold)” value (P388ADR cells; IC50 in P388ADR relative to P388) was 35.8 and the IC50 (P388ADR cells; Mus musculus, P388/ADR, 72 h, 3 days incubation) was 1790 ± 139 nM.
